The test concerns Lysozyme. Kind of test: Inhibition of Maillard reaction: suppression of lysozyme dimer formation (lysozyme + fructose, SDS-PAGE). Type of test: biochemical. Particulars: inhibition ratio of test compound to aminoguanidine (positive control); lysozyme 10 mg/ml, fructose 100 mM, 0.2M sodium phosphate pH 7.4, 37° C., 3 days; dimer amount by SDS-PAGE. The protocol:
Lysozyme and fructose were dissolved in a buffer solution of 0.2M sodium phosphate (pH 7.4) to respectively give concentrations of 10 mg/ml and 100 mM. After incubating at 37° C. for 3 days, a definite amount of the mixture was taken out and electrophoresed with the use of SDS-PAGE. After the completion of the electrophoresis, the gel was stained with 0.2% Coomassie Brilliant Blue R-250 and the amount of the dimer thus formed was determined.
Each of the test compounds was added before the initiation of the incubation and the effect of suppressing the formation of the dimer was examined at various concentrations, whereby the IC50 value was obtained. As a positive control, aminoguanidine, which is a known glycation inhibitor, was employed and the inhibition ratio of the test compound to aminoguanidine (IC50 of aminoguanidine/IC50 of test compound) was calculated.
Regarding `CC(C)=NN=C1NC(=O)C(Cc2ccc([N+](=O)[O-])cc2)N1` (stereo not drawn) [Test compound 33, 2-Isopropylidenehydrazono-5-(4-nitrobenzyl)imidazolidin-4-one], the “IC50 of aminoguanidine/IC50 of test compound” value (“IC50” below) came out at 2.4.

Turning to `CCOC(=O)CN1C(=O)C(CC(=O)Nc2ccccc2)SC1=NN=C(C)C` (stereo not drawn) [Test compound 61, 3-Ethoxycarbonylmethyl-5-(N-phenylcarbamoylmethyl)-2-isopropylidenehydrazonothiazolin-4-one], the “IC50” value came out at 0.91.

In the case of `CC(C)=NN=C1NC(=O)C(CC(=O)Nc2ccccc2)N1` (stereo not drawn) [Test compound 46, 2-Isopropylidenehydrazono-5-(N-phenylcarbamoylmethyl)imidazolidin-4-one], the “IC50” value worked out at 5.7.

Take `CC(C)=NN=C1NC(=O)C(c2ccc(O)cc2)N1` (stereo not drawn) [Test compound 7, 5-(4-Hydroxyphenyl)-2-isopropylidenehydrazonoimidazolidin-4-one]: the “IC50” value is 1.1.

Take `CC(C)=NN=C1NC(=O)C(CC(=O)NCc2cccnc2)S1` (stereo not drawn) [Test compound 66, 2-Isopropylidenehydrazono-5-[N-(3-pyridylmethyl)carbamoylmethyl]thiazolidin-4-one]: the “IC50” value was 4.6.

On to `CC(C)=NN=C1NC(=O)C(Cc2ccc(OCc3ccc(Cl)cc3)cc2)N1` (stereo not drawn) [Test compound 6, 5-[4-(4-Chlorobenzyloxy)benzyl]-2-isopropylidenehydrazonoimidazolidin-4-one], for which the “IC50” value is 8.3.

For the compound “5-[N-(3-ethoxycarbonylphenyl)carbamoylmethyl]-2-isopropylidenehydrazonothiazolidin-4-one [Test compound 105]”, the “IC50” value is reported as 4.2.

Consider “2-Isopropylidenehydrazono-5-{N-[1-methoxycarbonyl-2-(3-indolyl)ethyl]carbamoylmethyl}thiazolidin-4-one [Test compound 102]”, for which the “IC50” value came to 4.3.

Consider “2-(4-Acetoamidobenzenesulfonohydrazono)-5-(4-benzyloxybenzyl)imidazolidin- 4-one [Test compound 76]”, for which the “IC50” value is listed as 7.9.

`CC(C)=NN=C1NC(=O)C(CC(=O)Nc2ccc(F)cc2C(=O)O)S1` (stereo not drawn) [Test compound 117, 5-[N-(2-carboxy-4-fluorophenyl)carbamoylmethyl]-2-isopropylidenehydrazonothiazolidin-4-one]: the “IC50” value is given as 7.0.

Consider `CC(C)=NN=C1NC(=O)C(CCCCNC(=O)OCc2ccccc2)N1` (stereo not drawn) [Test compound 62, 5-(4-Benzyloxycarbonylaminobutyl)-2-isopropylidenehydrazonoimidazolidin-4-one], for which the “IC50” value is listed as 57.

Turning to `CC(C)=NN=C1NC(=O)C(CC(=O)O)N1` (stereo not drawn) [Test compound 45, 5-Carboxymethyl-2-isopropylidenehydrazonoimidazolidin-4-one], the “IC50” value worked out at 4.8.

As to “5-(N-isopropylcarbamoylmethyl)-2-isopropylidenehydrazonothiazolidin-4-one [Test compound 31]”, the “IC50” value was 0.6.

In the case of `CC(C)=NN=C1NC(=O)C(Cc2c[nH]c3ccccc23)N1` (stereo not drawn) [Test compound 40, 5-(3-Indolylmethyl)-2-isopropylidenehydrazonoimidazolidin-4-one], the “IC50” value is given as 2.6.

With `CC(C)=NN=C1NC(=O)C(CC(=O)N[C@@H](Cc2c[nH]c3ccccc23)C(=O)O)S1` (stereo partly drawn) [Test compound 104, 5-{N-[1-carboxy-2-(3-indolyl)ethyl]carbamoylmethyl}-2-isopropylidenehydrazonothiazolidin-4-one], the “IC50” value came out at 0.7.

For the compound `CC(C)=NN=C1NC(=O)C(CC(=O)Nc2ccccc2)S1` (stereo not drawn) [Test compound 32, 2-isopropylidenehydrazono-5-(N-phenylcarbamoylmethyl)thiazolidin-4-one], the “IC50” value is reported as 55.

Consider `CCOC(=O)CN1C(=O)C(CC(=O)O)SC1=NN=C(C)C` (stereo not drawn) [Test compound 20, 5-Carboxymethyl-3-ethoxycarbonylmethyl-2-isopropylidenehydrazonothiazolidin-4-one], for which the “IC50” value was 3.0.

“5-[N-(1-carboxy-3-methylbutyl)carbamoylmethyl]-2-isopropylidenehydrazonothiazolidin-4-one [Test compound 103]”: the “IC50” value came out at 1.7.

As to “2-Isopropylidenehydrazono-5(R)-(N-phenylcarbamoylmethyl)thiazolidin-4-one [Test compound 109]”, the “IC50” value was 2.8.

Turning to “5-[N-(2-carboxymethylphenyl)carbamoylmethyl]-2-isopropylidenehydrazonothiazolidin-4-one [Test compound 108]”, the “IC50” value is recorded as 3.2.

`CC(C)=NN=C1NC(=O)C(Cc2ccc(OCc3cccs3)cc2)N1` (stereo not drawn) [Test compound 36, 2-Isopropylidenehydrazono-5-[4-(2-thienylmethoxy)benzyl]imidazolidin-4-one]: the “IC50” value is 3.5.

As to `CC(C)=NN=C1NC(=O)C(CC(=O)NC2CCCCC2)S1` (stereo not drawn) [Test compound 18, 5-(N-cyclohexylcarbamoylmethyl)-2-isopropylidenehydrazonothiazolidin-4-one], the “IC50” value was 1.5.

On to `CC(C)=NN=C1NC(=O)C(CC(=O)N(C)c2ccccc2)S1` (stereo not drawn) [Test compound 65, 2-Isopropylidenehydrazono-5-(N-methyl-N-phenylcarbamoylmethyl)thiazolidin-4-one], for which the “IC50” value is on record as 6.8.

For `CC(C)=NN=C1NC(=O)C(Cc2ccc(OCc3c(Cl)cccc3Cl)cc2)N1` (stereo not drawn) [Test compound 5, 5-[4-(2,6-Dichlorobenzyloxy)benzyl]-2-isopropylidenehydrazonoimidazolidin-4-one], the “IC50” value was 8.0.

Consider “5-{N-[1-carboxy-2-(4-benzyloxyphenyl)ethyl]carbamoylmethyl}-2-isopropylidenehydrazonothiazolidin-4-one [Test compound 101]”, for which the “IC50” value was determined as 1.5.

In the case of “2-Isopropylidenehydrazono-5-[N-(4-methylthiophenyl)carbamoylmethyl]thiazolidin-4-one [Test compound 55]”, the “IC50” value was found to be 5.3.

Regarding `CCOC(=O)c1ccc(NC(=O)CC2SC(=NN=C(C)C)NC2=O)cc1` (stereo not drawn) [Test compound 15, 5-[N-(4-ethoxycarbonylphenyl)carbamoylmethyl]-2-isopropylidenehydrazonothiazolidin-4-one], the “IC50” value is listed as 1.2.

With `CC(C)=NN=C1NC(=O)C(Cc2ccc(Sc3ccccc3)cc2)N1` (stereo not drawn) [Test compound 10, 2-Isopropylidenehydrazono-5-(4-phenylthiobenzyl)imidazolidin-4-one], the “IC50” value was 5.4.

With `COc1ccc(NC(=O)CC2SC(=NN=C(C)C)NC2=O)cc1OC` (stereo not drawn) [Test compound 90, 5-[N-(3,4-dimethoxyphenyl)carbamoylmethyl]-2-isopropylidenehydrazonothiazolidin-4-one], the “IC50” value was determined as 42.

`CC(C)=NN=C1NC(=O)C(CCC(=O)Nc2ccccc2)N1` (stereo not drawn) [Test compound 80, 2-Isopropylidenehydrazono-5-[2-(N-phenylcarbamoyl)ethyl]imidazolidin-4-one]: the “IC50” value is on record as 3.1.

Take `COc1cc(NC(=O)CC2SC(=NN=C(C)C)NC2=O)c(C(=O)O)cc1OC` (stereo not drawn) [Test compound 114, 5-[N-(2-carboxy-4,5-dimethoxyphenyl)carbamoylmethyl]-2-isopropylidenehydrazonothiazolidin-4-one]: the “IC50” value is reported as 5.4.

In the case of “5-[N-(1-ethoxycarbonyl-3-methylbutyl)carbamoylmethyl]-2-isopropylidenehydrazonothiazolidin-4-one [Test compound 97]”, the “IC50” value came to 2.3.

For the compound `CSc1ccc(CC2SC(=NN=C(C)C)NC2=O)cc1` (stereo not drawn) [Test compound 11, 2-isopropylidenehydrazono-5-(4-methylthiobenzyl)thiazolidin-4-one], the “IC50” value stood at 1.2.

As to `CC(C)=NN=C1NC(=O)C(CC(=O)NCc2ccccc2)S1` (stereo not drawn) [Test compound 30, 5-(N-Benzylcarbamoylmethyl)-2-isopropylidenehydrazonothiazolidin-4-one], the “IC50” value was determined as 3.5.

Consider “5-[N-(4-bromophenyl)carbamoylmethyl]-2-isopropylidenehydrazonothiazolidin- 4-one [Test compound 56]”, for which the “IC50” value stood at 10.2.

Turning to `CC(C)=NN=C1NC(=O)C(Cc2c[nH]c3ccc(O)cc23)N1` (stereo not drawn) [Test compound 41, 5-(5-Hydroxy-3-indolylmethyl)-2-isopropylidenehydrazonoimidazolidin-4-one], the “IC50” value was 4.5.

For “2-Isopropylidenehydrazono-5-[N-(2-methyl-5-methoxycarbonylphenyl)carbamoylmethyl]thiazolidin-4-one [Test compound 84]”, the “IC50” value is 3.5.

For “5-(4-Benzyloxybenzyl)-2-isopropylidenehydrazonothiazolidin-4-one [Test compound 12]”, the “IC50” value is listed as 4.4.

Regarding “5-(N-carboxymethylcarbamoylmethyl)-2-isopropylidenehydrazonothiazolidin-4- one [Test compound 47]”, the “IC50” value is on record as 1.7.

These data come from patent US5677322A, “Maillard reaction inhibitor” (Otsuka Pharmaceutical Co., Ltd., priority 1993, dated 1997).
